Consider 32 molecules from patent publication US20230416228A1 (Forkhead Biotherapeutics, Inc., priority 2020, published 2023).

For this assay, the target named is T1, human FOXO1 (constitutively active form Thr24Ala, Ser256Ala, Ser319Ala) (Homo sapiens, UniProt Q12778, S256A/S319A/T24A).
T1 construct: expressed in transfected cells; host or cells: HEK293 cells transfected with pcDNA3.1 plasmid
Description: FOXO1 inhibitor activity assay: cell-based transcriptional (luciferase) reporter assay in HEK293 cells. Particulars: HEK293 cells transfected with insulin response element firefly luciferase reporter, FOXO1 and Renilla luciferase; 10-point dose response 50 μM to 2.5 nM; 24 hours. In a few lines:
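IC50 and maximal inhibition were fitted by 4-parameter logistic regression on normalized firefly/Renilla luciferase ratios. The 0% reference used RFP in place of FOXO1, and the 100% reference was DMSO-only with all plasmids.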
A general note: A reporter such as luciferase makes a cellular process visible.

T1 sequence (Q12778 whole entry T24A/S256A/S319A): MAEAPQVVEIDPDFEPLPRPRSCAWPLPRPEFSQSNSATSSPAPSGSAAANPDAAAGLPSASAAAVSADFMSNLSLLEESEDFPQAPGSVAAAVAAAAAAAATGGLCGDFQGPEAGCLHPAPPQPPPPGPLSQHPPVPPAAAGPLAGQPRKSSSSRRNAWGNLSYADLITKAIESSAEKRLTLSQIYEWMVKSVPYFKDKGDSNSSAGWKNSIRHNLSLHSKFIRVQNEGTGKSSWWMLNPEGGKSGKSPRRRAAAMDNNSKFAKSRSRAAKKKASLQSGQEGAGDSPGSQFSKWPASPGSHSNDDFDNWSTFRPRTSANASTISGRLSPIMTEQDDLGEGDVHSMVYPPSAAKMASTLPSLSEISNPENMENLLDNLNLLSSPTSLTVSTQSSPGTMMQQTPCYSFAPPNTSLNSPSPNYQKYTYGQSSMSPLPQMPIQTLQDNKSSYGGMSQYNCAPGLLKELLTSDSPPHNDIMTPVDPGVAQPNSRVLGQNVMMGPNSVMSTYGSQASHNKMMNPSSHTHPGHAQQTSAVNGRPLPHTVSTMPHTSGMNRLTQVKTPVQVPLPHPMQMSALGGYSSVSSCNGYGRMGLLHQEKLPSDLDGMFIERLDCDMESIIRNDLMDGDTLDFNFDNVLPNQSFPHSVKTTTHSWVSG

A word on the IC50: it is the concentration at which inhibition is half-maximal. Take `COc1ccc(C(=O)Nc2nc(-c3nc4ccccc4[nH]3)n(C)n2)cc1Cl` [Compound A-234, N-[5-(1H-benzimidazol-2-yl)-1-methyl-1,2,4-triazol-3-yl]-3-chloro-4-methoxy-benzamide]: the half-inhibitory concentration (IC50) fell in the range of 300 to 1000 nM.

`CN1CCN(c2ccc(C(=O)Nc3cc(-c4nc5ccccc5[nH]4)n(C)n3)cc2)CC1=O` [Compound A-235, N-[5-(1H-benzimidazol-2-yl)-1-methyl-pyrazol-3-yl]-4-(4-methyl-3-oxo-piperazin-1-yl)benzamide]: the IC50 was 100 to 300 nM.

Regarding `Cc1nc(N2CCOCC2)ccc1C(=O)Nc1cc(-c2nc3ccccc3[nH]2)n(C)n1` [Compound A-236], the IC50 lay within 100 to 300 nM.

On to `COc1cc(F)c2[nH]c(-c3cc(NC(=O)c4ccc(N5CCOC(CO)C5)nc4)nn3C)nc2c1` (centres unmarked) [Compound A-237, N-[5-(7-fluoro-5-methoxy-1H-benzimidazol-2-yl)-1-methyl-pyrazol-3-yl]-6-[2-(hydroxymethyl)morpholin-4-yl]pyridine-3-carboxamide], for which the IC50 was < 100 nM.

As to `Cn1nc(NC(=O)c2ccc(N3CCOCC3CO)nc2)cc1-c1nc2ccccc2[nH]1` (centres unmarked) [Compound A-238, N-[5-(1H-benzimidazol-2-yl)-1-methyl-pyrazol-3-yl]-6-[3-(hydroxymethyl)morpholin-4-yl]pyridine-3-carboxamide], the IC50 was 100 to 300 nM.

As to `COc1cc(F)c2[nH]c(-c3cc(NC(=O)c4ccc(N5CCOC(CO)C5)nc4)n[nH]3)nc2c1` (centres unmarked) [Compound A-239, N-[5-(7-fluoro-5-methoxy-1H-benzimidazol-2-yl)-1H-pyrazol-3-yl]-6-[2-(hydroxymethyl)morpholin-4-yl]pyridine-3-carboxamide], the IC50 was > 1000 nM.

For the molecule `COc1cc(F)c2[nH]c(-c3cc(NC(=O)c4ccc(N5CCN(C(C)=O)CC5)nc4)nn3C)nc2c1` [Compound A-240, 6-(4-acetylpiperazin-1-yl)-N-[5-(7-fluoro-5-methoxy-1H-benzimidazol-2-yl)-1-methyl-pyrazol-3-yl]pyridine-3-carboxamide], the IC50 is < 100 nM.

For `CN1CCN(c2ccc(C(=O)Nc3nc(-c4nc5ccccc5[nH]4)n(C)n3)cc2)CC1` [Compound A-241, N-[5-(1H-benzimidazol-2-yl)-1-methyl-1,2,4-triazol-3-yl]-4-(4-methylpiperazin-1-yl)benzamide], the IC50 fell in the range of 300 to 1000 nM.

`CN1CCN(c2ccc(C(=O)Nc3cc(-c4nc5ccccc5[nH]4)[nH]n3)cc2)CC1=O` [Compound A-242, N-[5-(1H-benzimidazol-2-yl)-1H-pyrazol-3-yl]-4-(4-methyl-3-oxo-piperazin-1-yl)benzamide]: the IC50 is 100 to 300 nM.

`CN1CCN(c2ccc(C(=O)Nc3cc(-c4nc5ccccc5[nH]4)[nH]n3)cn2)CC1=O` [Compound A-243, N-[5-(1H-benzimidazol-2-yl)-1H-pyrazol-3-yl]-6-(4-methyl-3-oxo-piperazin-1-yl)pyridine-3-carboxamide] registered an IC50 of 300 to 1000 nM.

The molecule `CC(C)C(=O)N1CCN(c2ccc(C(=O)Nc3cc(-c4nc5ccccc5[nH]4)n(C)n3)cn2)CC1` [Compound A-244, N-[5-(1H-benzimidazol-2-yl)-1-methyl-pyrazol-3-yl]-6-[4-(2-methylpropanoyl)piperazin-1-yl]pyridine-3-carboxamide] showed an IC50 of 100 to 300 nM.

For `C[C@H]1CN(c2ccc(C(=O)Nc3cc(-c4nc5ccccc5[nH]4)n(C)n3)cn2)CCN1` [Compound A-245, N-[5-(1H-benzimidazol-2-yl)-1-methyl-pyrazol-3-yl]-6-[(3S)-3-methylpiperazin-1-yl]pyridine-3-carboxamide], the IC50 is < 100 nM.

As to `CN1CCN(c2ccc(C(=O)Nc3cc(-c4nc5ccccc5[nH]4)n(C)n3)cn2)CC1=O` [Compound A-246, N-[5-(1H-benzimidazol-2-yl)-1-methyl-pyrazol-3-yl]-6-(4-methyl-3-oxo-piperazin-1-yl)pyridine-3-carboxamide], the concentration for half-maximal inhibition (IC50) fell in the range of 100 to 300 nM.

`C[C@@H]1CN(c2ccc(C(=O)Nc3cc(-c4nc5ccccc5[nH]4)n(C)n3)cn2)CCN1` [Compound A-247, N-[5-(1H-benzimidazol-2-yl)-1-methyl-pyrazol-3-yl]-6-[(3R)-3-methylpiperazin-1-yl]pyridine-3-carboxamide]: the half-maximal inhibitory concentration (IC50) was < 100 nM.

In the case of `Cn1nc(NC(=O)c2ccc(N3CCO[C@@H](CO)C3)nc2)cc1-c1nc2ccccc2[nH]1` [Compound A-248, N-[5-(1H-benzimidazol-2-yl)-1-methyl-pyrazol-3-yl]-6-[(2R)-2-(hydroxymethyl)morpholin-4-yl]pyridine-3-carboxamide], the IC50 was < 100 nM.

Molecule `Cn1nc(NC(=O)c2ccc(N3CCN4C(=O)CC[C@@H]4C3)nc2)cc1-c1nc2ccccc2[nH]1` [Compound A-249, 6-[(8aR)-6-oxo-1,3,4,7,8,8a-hexahydropyrrolo[1,2-a]pyrazin-2-yl]-N-[5-(1H-benzimidazol-2-yl)-1-methyl-pyrazol-3-yl]pyridine-3-carboxamide] displayed an IC50 of 100 to 300 nM.

Take `Cn1nc(NC(=O)c2ccc(N3CCN4C(=O)CC[C@H]4C3)nc2)cc1-c1nc2ccccc2[nH]1` [Compound A-250]: the IC50 lay in the range of 300 to 1000 nM.

For `Cn1nc(NC(=O)c2ccc(N3CCO[C@H](CO)C3)nc2)cc1-c1nc2ccccc2[nH]1` [Compound A-251, N-[5-(1H-benzimidazol-2-yl)-1-methyl-pyrazol-3-yl]-6-[(2S)-2-(hydroxymethyl)morpholin-4-yl]pyridine-3-carboxamide], the half-inhibitory concentration (IC50) was < 100 nM.

On to `Cn1nc(NC(=O)c2ccc(OC3COC3)c(Cl)c2)cc1-c1nc2ccccc2[nH]1` [Compound A-252, N-[5-(1H-benzimidazol-2-yl)-1-methyl-pyrazol-3-yl]-3-chloro-4-(oxetan-3-yloxy)benzamide], for which the IC50 was < 100 nM.

Take `Cc1nc(N2CCN(C)CC2)ccc1C(=O)Nc1cc(-c2nc3ccccc3[nH]2)n(C)n1` [Compound A-253, N-[5-(1H-benzimidazol-2-yl)-1-methyl-pyrazol-3-yl]-2-methyl-6-(4-methylpiperazin-1-yl)pyridine-3-carboxamide]: the IC50 fell in the range of 100 to 300 nM.

Take `CC(=O)N1CCN(c2ccc(C(=O)Nc3cc(-c4nc5ccccc5[nH]4)n(C)n3)cn2)CC1CO` (centres unmarked) [Compound A-254, 6-14-acetyl-3-(hydroxymethyl)piperazin-1-yl-N-[5-(1H-benzimidazol-2-yl)-1-methyl-pyrazol-3-yl]pyridine-3-carboxamide]: the IC50 is > 1000 nM.

Consider `C[C@@H]1CN(c2ccc(C(=O)Nc3cc(-c4nc5ccccc5[nH]4)n(C)n3)cn2)C[C@H](C)N1` [Compound A-255, N-[5-(1H-benzimidazol-2-yl)-1-methyl-pyrazol-3-yl]-6-[(3R,5S)-3,5-dimethylpiperazin-1-yl]pyridine-3-carboxamide], for which the IC50 was < 100 nM.

With `COCCOc1ccc2[nH]c(-c3cc(NC(=O)c4ccc(OC)c(Cl)c4)n[nH]3)nc2c1` [Compound A-256, 3-chloro-4-methoxy-N-[5-[5-(2-methoxyethoxy)-1H-benzimidazol-2-yl]-1H-pyrazol-3-yl]benzamide], the IC50 is < 100 nM.

With `Cn1nc(NC(=O)c2ccc(N3CCNC(CO)C3)nc2)cc1-c1nc2ccccc2[nH]1` (centres unmarked) [Compound A-258, N-[5-(1H-benzimidazol-2-yl)-1-methyl-pyrazol-3-yl]-6-[3-(hydroxy-methyl)piperazin-1-yl]pyridine-3-carboxamide], the IC50 is 300 to 1000 nM.

As to `Cn1nc(NC(=O)c2ccc(N3CCN(CC(C)(C)O)CC3)cc2)cc1-c1nc2ccccc2[nH]1` [Compound A-259, N-[5-(1H-benzimidazol-2-yl)-1-methyl-pyrazol-3-yl]-4-[4-(2-hydroxy-2-methyl-propyl)piperazin-1-yl]benzamide], the IC50 is < 100 nM.

As to `[2H]C([2H])([2H])OCCN1CCN(c2ccc(C(=O)Nc3cc(-c4nc5ccccc5[nH]4)n(C)n3)cn2)CC1` [Compound A-260, N-[5-(1H-benzimidazol-2-yl)-1-methyl-pyrazol-3-yl]-6-[4-[2-(trideuterio-methoxy)ethyl]piperazin-1-yl]pyridine-3-carboxamide], the IC50 is 100 to 300 nM.

Turning to `COc1ccc(C(=O)Nc2cc(-c3nc4cc(N5CCN(C)CC5)ccc4[nH]3)[nH]n2)cc1Cl` [Compound A-261, 3-chloro-4-methoxy-N-[5-[5-(4-methylpiperazin-1-yl)-1H-benzimidazol-2-yl]-1H-pyrazol-3-yl]benzamide], the 50% inhibitory concentration (IC50) was < 100 nM.

On to `Cc1nc(N2CCOC(CO)C2)ccc1C(=O)Nc1cc(-c2nc3ccccc3[nH]2)n(C)n1` (centres unmarked) [Compound A-262, N-[5-(1H-benzimidazol-2-yl)-1-methyl-pyrazol-3-yl]-6-[2-(hydroxy-methyl)morpholin-4-yl]-2-methyl-pyridine-3-carboxamide], for which the IC50 lay within 100 to 300 nM.

Consider `CN1CCN(c2ccc(C(=O)Nc3cc(-c4nc5ccccc5[nH]4)n(C)n3)cn2)CC1CO` (centres unmarked) [Compound A-263, N-[5-(1H-benzimidazol-2-yl)-1-methyl-pyrazol-3-yl]-6-[3-(hydroxy-methyl)-4-methyl-piperazin-1-yl]pyridine-3-carboxamide], for which the IC50 lay in the range of 100 to 300 nM.

With `Cc1nc(N2CCN(C3COC3)CC2)ccc1C(=O)Nc1cc(-c2nc3ccccc3[nH]2)n(C)n1` [Compound A-264, N-[5-(1H-benzimidazol-2-yl)-1-methyl-pyrazol-3-yl]-2-methyl-6-[4-(oxetan-3-yl)piperazin-1-yl]pyridine-3-carboxamide], the IC50 lay within 300 to 1000 nM.

On to `COc1ccc(C(=O)Nc2cc(-c3nc4cc(N5CCOCC5)ccc4[nH]3)[nH]n2)cc1Cl` [Compound A-265, 3-chloro-4-methoxy-N-[15-(5-morpholino-1H-benzimidazol-2-yl)-1H-pyrazol-3-yl]benzamide], for which the IC50 is < 100 nM.

For `Cn1nc(NC(=O)c2ccc(N3CCN(CCOC4CC4)CC3)nc2)cc1-c1nc2ccccc2[nH]1` [Compound A-266, N-[5-(1H-benzimidazol-2-yl)-1-methyl-pyrazol-3-yl]-6-[4-[2-(cyclo-propoxy)ethyl]piperazin-1-yl]pyridine-3-carboxamide], the IC50 is < 100 nM.
